These results are taken from patent publication US6538107B1, “G protein coupled receptor protein production, and use thereof” (Takeda Chemical Industries, Ltd., priority 1994, dated 2003).

For this experiment, the system named is oocytes injected with H2O. Kind of experiment: Electrophysiological measurement in control Xenopus oocytes injected with H2O instead of pMAH2-17 cRNA. It counts as cell-based. The conditions noted are these: ATP stimulation, initial membrane potential −60 mV.

Each structure is given as a SMILES string.

`Nc1ncnc2c1ncn2[C@@H]1O[C@H](COP(=O)(O)OP(=O)(O)OP(=O)(O)O)[C@@H](O)[C@H]1O` [ATP, Adenosine triphosphate]: the “inward currents (current changes of the membrane) evoked by ATP” value is on record as “such a current was not observed”.
